Article PMC8000889, “Phenolic Compounds from Leaves and Flowers of Hibiscus roseus: Potential Skin Cosmetic Applications of an Under-Investigated Species” (Plants, 2021)
Values after ≈ are worked out from the molar mass of the structure shown.

Target: T1, collagenase (Collagenase Activity Assay Kit, Sigma-Aldrich)
T1 construct: gene colG
Assay: FALGPA hydrolysis, absorbance at […] nm
Assay type: biochemical
Conditions: substrate FALGPA; 96-well plate, 200 μL, followed for 20 min

**Q.** With `O=c1c(O)c(-c2ccc(O)c(O)c2)oc2cc(O)cc(O)c12` [quercetin] as the compound, how does the IC50 read?
**A.** Its IC50 is 5.6 ± 0.7 µg/mL (≈ 18.5 µM).
